In ChEMBL document CHEMBL4715811, “Antagonists of Orexin Receptors as Potential Treatment of Sleep Disorders, Obesity, Eating Disorders, and Other Neurological and Psychiatric Disorders” (ACS Med Chem Lett, 2016):

Assays:
[1] = target: T1, Orexin receptor type 2 (Homo sapiens, UniProt O43614); assay: Antagonist activity at human OX2R expressed in CHO cells assessed as inhibition of orexin A-induced intracellular Ca2+ release by FLIPR assay; type: functional, cell-based
T1 sequence (O43614 whole entry): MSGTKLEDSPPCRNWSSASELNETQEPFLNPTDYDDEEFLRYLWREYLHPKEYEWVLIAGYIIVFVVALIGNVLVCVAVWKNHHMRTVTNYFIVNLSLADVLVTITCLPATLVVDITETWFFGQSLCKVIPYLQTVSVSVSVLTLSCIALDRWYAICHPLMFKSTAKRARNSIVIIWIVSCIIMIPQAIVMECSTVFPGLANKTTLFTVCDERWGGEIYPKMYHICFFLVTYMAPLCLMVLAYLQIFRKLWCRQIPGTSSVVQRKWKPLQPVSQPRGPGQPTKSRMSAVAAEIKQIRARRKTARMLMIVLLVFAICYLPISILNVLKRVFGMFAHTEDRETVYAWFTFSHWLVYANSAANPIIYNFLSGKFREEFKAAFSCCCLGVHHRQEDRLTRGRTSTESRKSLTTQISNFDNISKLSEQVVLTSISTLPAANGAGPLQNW

[2] = target: T2, Orexin/Hypocretin receptor type 1 (Homo sapiens, UniProt O43613); assay: Antagonist activity at human OX1R expressed in CHO cells assessed as inhibition of orexin A-induced intracellular Ca2+ release by FLIPR assay; type: functional, cell-based
T2 sequence (O43613 whole entry): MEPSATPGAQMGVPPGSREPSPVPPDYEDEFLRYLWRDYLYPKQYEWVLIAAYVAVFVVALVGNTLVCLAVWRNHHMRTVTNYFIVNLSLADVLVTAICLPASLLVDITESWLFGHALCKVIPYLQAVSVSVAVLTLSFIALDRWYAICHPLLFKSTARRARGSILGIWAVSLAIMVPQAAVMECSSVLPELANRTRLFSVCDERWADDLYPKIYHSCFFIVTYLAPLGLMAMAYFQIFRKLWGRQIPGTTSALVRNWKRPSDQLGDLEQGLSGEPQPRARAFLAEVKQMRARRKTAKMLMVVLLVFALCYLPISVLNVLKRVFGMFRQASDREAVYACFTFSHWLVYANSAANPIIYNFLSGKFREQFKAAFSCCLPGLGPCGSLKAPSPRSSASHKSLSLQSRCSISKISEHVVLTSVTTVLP

Compound	IC50 [1] [nM]	IC50 [2] [nM]
CC[C@](C)(O)c1nc([C@@H]2CC[C@@H](C)N(C(=O)c3cscc3-n3nccn3)C2)oc1C	18	9770
C[C@@H]1CC[C@@H](c2nc(CN(C)C)c(-c3ccccc3)o2)CN1C(=O)c1ccccc1-n1nccn1	983	
CCOc1ccccc1C(=O)N1C[C@H](c2nc(C(C)(C)O)c(C)o2)CC[C@H]1C	12	
